Measured values reported in patent US8524759B2, “Phenylbutazone carrier formulation showing increased bioactivity in animals” (priority 2009, dated 2013).

What was measured:
[1] = Bioequivalence test: blood plasma phenylbutazone levels (HPLC) after horses eat the product mixed in grain; format: in vivo, horse; parameters: unit not given here; conditions: 4 g phenylbutazone in grain, oral, average of five horses
Procedure: The above product mixture was tested for bioequivalency as follows. Three healthy mature geldings and two non-pregnant mares aged 3-15 years with similar weights were chosen for a bioequivalence test. The bioequivalence test was designed to determine the difference in blood plasma absorption between commercially available phenylbutazone tablets and the inventive product mixture described above. […] At five o'clock p.m. the evening before the test, each horse was fed a normal meal consisting of 1 gallon of grain with fourteen percent protein, and ten pounds of alfalfa hay. During the test each horse was stabled separately and had access to drinking water at all times. On test day, each horse was fasted until administration of the test product, and then given a normal meal consisting of one gallon of grain with fourteen percent protein and ten pounds of alfalfa hay five hours post dosing and at twelve and one-half hours after administration. The morning of the test, 4.60 grams of the product from example one containing a total of four grams of phenylbutazone, was added to one half gallon of grain with fourteen percent protein by lightly stifling. Each horse was given 15 minutes to consume the grain. […] Each of the five horses followed this procedure. Two hours following administration a 4.5 cc blood sample was taken from each of the five horses. Thereafter, additional 4.5 cc blood samples were taken at half-hour intervals until the sixth hour. After the sixth hour 4.5 cc blood samples were taken hourly until the eighth hour. […] The blood samples were taken with a 20 gauge one inch needle and promptly put into a green CST Lithium Heparin tubes and cooled in ice water at 36 degrees F. When each sample was collected, the blood sample was spun to separate the blood plasma from each sample. The separated blood plasma was placed in a freezer for twenty-four hours at 20 below zero. After twenty-four hours, the blood plasma was thawed to room temperature and phenylbutazone levels were quantified for each sample by a validated HPLC method. Two weeks later after completing a wash out period, the same three healthy mature geldings and two non-pregnant mares aged 3-15 years with similar weights were used for a cross over bioequivalence test. This bioequivalence test was to determine the concentration levels in blood plasma absorption of commercially available phenylbutazone tablets. […] At five o'clock p.m. the evening before the test, each horse was fed a normal meal consisting of 1 gallon of grain with fourteen percent protein, and ten pounds of alfalfa hay. During the test each horse was stabled separately and had access to drinking water at all times. On test day, each horse was fasted until administration of the test product (4 grams of crushed active ingredient phenylbutazone in tablets), and then given a normal meal consisting of one gallon of grain with fourteen percent protein and ten pounds of alfalfa hay five hours post dosing, and at twelve and one-half hours after administration. The morning of the test, four 1 gram tablets of the commercially available phenylbutazone were crushed in to a fine powder, and were added to one half gallon of grain with fourteen percent protein by lightly stifling for each horse. Each horse was given 15 minutes to consume the grain. […] Each of the five horses followed this procedure. Two hours following administration a 4.5 cc blood sample was taken from each of the five horses. Thereafter, additional 4.5 cc blood samples were taken at half-hour intervals until the sixth hour. After the sixth hour 4.5 cc blood samples were taken hourly until the eighth hour. […] The blood samples were taken with a 20 gauge one inch needle and promptly put into a green CST Lithium Heparin tubes and cooled in ice water at 36 degrees F. When each sample was collected, the blood sample was spun to separate the blood plasma from each sample. The separated blood plasma was placed in a freezer for twenty-four hours at 20 below zero. […]

[2] = oral administration; cited from earlier work

CCCCC1C(=O)N(c2ccccc2)N(c2ccccc2)C1=O [Pure Phenylbutazone, 4-butyl-diphenyl-3,5-pyrazoidinedione]
blood plasma concentration of phenylbutazone ([1]; 2 hours after eating): 5.0
blood plasma concentration of phenylbutazone ([1]; 3 hours after eating): 6.0
blood plasma concentration of phenylbutazone ([1]; 4 hours after eating): 8.5
blood plasma concentration of phenylbutazone ([1]; 5 hours after eating): 10.1
blood plasma concentration of phenylbutazone ([1]; 6 hours after eating): 12.0
blood plasma concentration of phenylbutazone ([1]; 7 hours after eating): 13.0
blood plasma concentration of phenylbutazone ([1]; 8 hours after eating): 12.14
blood plasma concentration of phenylbutazone ([1]; 10 hours after eating): 9.9
blood plasma concentration of phenylbutazone ([1]; 12 hours after eating): 7.3
blood plasma concentration of phenylbutazone ([1]; 18 hours after eating): 4.18
time required to achieve an effective concentration level [2]: 3 to 5 h
